Laboratory results taken from patent publication US20100061928A1, “LABELLED ANALOGUES OF HALOBENZAMIDES AS RADIOPHARMACEUTICALS” (Institut National De La Sante et De La Recherche Medicale …, priority 2006, published 2010).
Counter-ions that a name gives are not always drawn. Values belong to the molecule of their own block, whether it stands above or below them.

Key:
[1] = tested on: B16 F0 murine melanoma cells; assay: Colony forming technique: chemotherapeutic and radiotherapeutic (^125I) effects in vitro; type: cell-based; conditions: for % of inhibition: radiotherapeutic effects alone
Method: The colony forming technique is involved, that is to say the growth of colonies of clones starting from tumour cells (B16 F0 murine melanoma cells) inoculated at a low concentration. This method makes it possible to visualize the cytotoxic and cytostatic properties of the compounds studied. The study was carried out in three parts:
The experiment is carried out on 6-well plates where 200 cells are inoculated in 2 ml of DMEM medium. After 20 hours, the medium is withdrawn and replaced with 2 ml of medium comprising the labelled compound at the desired concentration. This study is carried out in comparison with control wells comprising DMEM medium alone. […] The plates are incubated for 8 days and then the medium is withdrawn. The wells are rinsed with PBS and methanol is added for 3 minutes. Once attached, the cells are coloured with crystal violet with a contact time of 3 minutes. Subsequently, the colonies comprising more than 50 cells are counted using a dedicated counter. The growth of the treated colonies of cells is quantified in comparison with the controls. The activity of the product is expressed by a percentage of inhibition:
100−[(number of treated colonies)/(number of control colonies)]×100

tumour = assay: Dosimetry with regard to the tumour (MIRD programme, extrapolated to ^131I); conditions: for Effective period: extrapolated to 131I labelling; for Biological period: from biodistribution data
[2] = tested on: grafted B16 F0 murine melanoma tumour; assay: Biodistribution of the ^125I-labelled molecules in the melanoma-bearing mouse (autoradiography of whole-body sections); conditions: for Biodistribution, Mean, B 16: B 16 tumour
[3] = Elimination of the molecules: cumulative urinary and faecal excretion 0-72 hours; type: in vivo, mouse; conditions: cumulative excretion 0-72 hours; for Faecal elimination 0-72 hours (Faeces) / Urinary elimination 0-72 hours (Urine): mice in metabolic cages; for Urinary and faecal elimination 0-72 hours (Total): urine + faeces

SMILES: [125I-].[Na+] [Na^125I, sodium iodide Na^125I, reference compound]
- effect on colony growth (in words) ([1]; comparison for the compounds labelled with iodine-125 with a high specific activity): without effect

SMILES: CCN(CC)CCNC(=O)c1cccc2c(=O)c3cc([125I])ccc3[nH]c12.Cl.Cl [[^125I]-84, [^125I]-N-(2-diethylaminoethyl)-9,10-dihydro-7-iodo-9-oxoacridine-4-carboxamide dihydrochloride]
- Cumulative effect (% inhib) ([1]; cold compound 84 at 0.75 μM with labelled [^125I]-84, activity 0): 17.3 % inhib
- Cumulative effect (% inhib) ([1]; cold compound 84 at 0.75 μM with labelled [^125I]-84, activity 1.5 kBq): 18.3 % inhib
- Cumulative effect (% inhib) ([1]; cold compound 84 at 0.75 μM with labelled [^125I]-84, activity 6 kBq): 22 % inhib
- Cumulative effect (% inhib) ([1]; cold compound 84 at 0.75 μM with labelled [^125I]-84, activity 12 kBq): 40.3 % inhib
- Cumulative effect (% inhib) ([1]; cold compound 84 at 0.75 μM with labelled [^125I]-84, activity 24 kBq): 54 % inhib
- Cumulative effect (% inhib) ([1]; cold compound 84 at 0.75 μM with labelled [^125I]-84, activity 48 kBq): 88 % inhib
- % of inhibition ([1]; activity 1.5 kBq, concentration 9.31 pM): 4.5%
- % of inhibition ([1]; activity 6 kBq, concentration 37.23 pM): 12.4%
- % of inhibition ([1]; activity 12 kBq, concentration 74.5 pM): 29%
- % of inhibition ([1]; activity 24 kBq, concentration 148.9 pM): 30%
- % of inhibition ([1]; activity 48 kBq, concentration 297.8 pM): 69%

- Effective period (tumour): 112.5 h
- Biological period (tumour): 268.9 hours
- tumour concentration, times higher than with BZA ([2]; at 72 hours (FIG. 1B)): 22 times
- Faecal elimination 0-72 hours (Faeces) [3]: 38.4%
- Urinary and faecal elimination 0-72 hours (Total) [3]: 48.8%
- Urinary elimination 0-72 hours (Urine) [3]: 10.4%
SMILES: CCN(CC)CCNC(=O)c1cccc2c(=O)c3cc(I)ccc3[nH]c12 [compound 84, N-(2-diethylaminoethyl)-9,10-dihydro-7-iodo-9-oxoacridine-4-carboxamide hydrochloride]

SMILES: CCN(CC)CCNC(=O)c1ccc2cncc(I)c2n1.Cl.Cl [compound 142, N-(2-diethylaminoethyl)-8-iodo-1,6-naphthyridine-2-carboxamide dihydrochloride]
- Effective period (tumour): 26.1 h
- Biological period (tumour): 30.2 hours
- Biodistribution, Mean, B 16 ([2]; 1 H): 23.22
- Biodistribution, Mean, B 16 ([2]; 3 H): 13.87
- Biodistribution, Mean, B 16 ([2]; 6 H): 11.42
- Biodistribution, Mean, B 16 ([2]; 24 H): 8.37
- Biodistribution, Mean, B 16 ([2]; 72 H): 3.31
- Biodistribution, Mean, GB ([2]; 3 H): 41.51
- Biodistribution, Mean, GB ([2]; 6 H): 28.67
- Biodistribution, Mean, Ic ([2]; 1 H): 32.83
- Biodistribution, Mean, Ic ([2]; 3 H): 47.65
- Biodistribution, Mean, Ic ([2]; 6 H): 43.48
- Biodistribution, Mean, Ic ([2]; 24 H): 0.82
- Biodistribution, Mean, Sc ([2]; 1 H): 17.58
- Biodistribution, Mean, Sc ([2]; 3 H): 9.76
- Biodistribution, Mean, Sc ([2]; 6 H): 9.17
- Biodistribution, Mean, Sc ([2]; 24 H): 0.62
- Biodistribution, Mean, Sc ([2]; 72 H): 2.13
- tumour concentration (in words) ([2]; ^125I-labelled compound, melanoma-bearing mouse): very high tumour concentration from one hour
- Biodistribution, Mean, blood ([2]; 1 H): 2.21
- Biodistribution, Mean, blood ([2]; 3 H): 1.88
- Biodistribution, Mean, blood ([2]; 6 H): 1.36
- Biodistribution, Mean, brain ([2]; brain, 1 H): 0.35
- Biodistribution, Mean, kidney ([2]; 1 H): 4.01
- Biodistribution, Mean, kidney ([2]; 3 H): 1.51
- Biodistribution, Mean, kidney ([2]; 6 H): 1.20
- Biodistribution, Mean, liver ([2]; 1 H): 3.92
- Biodistribution, Mean, liver ([2]; 3 H): 2.27
- Biodistribution, Mean, liver ([2]; 6 H): 1.49
- Biodistribution, Mean, lungs ([2]; 1 H): 2.36
- Biodistribution, Mean, lungs ([2]; 3 H): 1.87
- Biodistribution, Mean, lungs ([2]; 6 H): 1.26
- Biodistribution, Mean, muscle ([2]; 1 H): 0.86
- Biodistribution, Mean, muscle ([2]; 3 H): 0.43
- Biodistribution, Mean, muscle ([2]; 6 H): 0.24
- Biodistribution, Mean, pancreas ([2]; pancreas, 1 H): 1.78
- Biodistribution, Mean, spleen ([2]; 1 H): 5.38
- Biodistribution, Mean, spleen ([2]; 3 H): 0.93
- Biodistribution, Mean, thyroid ([2]; 1 H): 20.16
- Biodistribution, Mean, thyroid ([2]; 3 H): 41.44
- Biodistribution, Mean, thyroid ([2]; 6 H): 56.95
- Biodistribution, Mean, thyroid ([2]; 24 H): 115.66
- Biodistribution, Mean, uvea ([2]; 1 H): 24.11
- Biodistribution, Mean, uvea ([2]; 3 H): 20.30
- Biodistribution, Mean, uvea ([2]; 6 H): 13.15
- Biodistribution, Mean, uvea ([2]; 24 H): 10.00
- Biodistribution, Mean, uvea ([2]; 72 H): 13.06
- Faecal elimination 0-72 hours (Faeces) [3]: 29.4%
- Urinary and faecal elimination 0-72 hours (Total) [3]: 98.3%
- Urinary elimination 0-72 hours (Urine) [3]: 68.9%
